Measured values published in ChEMBL document CHEMBL5465560, “Selectivity Literature for EUbOPEN Chemogenomic Library” (2024).

Legend:
[1] = molecular target: Mitogen-activated protein kinase kinase kinase kinase 1 (Homo sapiens) (UniProt Q92918); details: at 10 µM
[2] = molecular target: T1, Dual specificity mitogen-activated protein kinase kinase 3 (Homo sapiens) (UniProt P46734); test: Selectivity interaction (Ambit KINOMEscan and KiNATiv profiling in Jurkat cells) EUB0000090b MAP2K3; format: cell-based; details: at 1 µM
T1 sequence (whole entry): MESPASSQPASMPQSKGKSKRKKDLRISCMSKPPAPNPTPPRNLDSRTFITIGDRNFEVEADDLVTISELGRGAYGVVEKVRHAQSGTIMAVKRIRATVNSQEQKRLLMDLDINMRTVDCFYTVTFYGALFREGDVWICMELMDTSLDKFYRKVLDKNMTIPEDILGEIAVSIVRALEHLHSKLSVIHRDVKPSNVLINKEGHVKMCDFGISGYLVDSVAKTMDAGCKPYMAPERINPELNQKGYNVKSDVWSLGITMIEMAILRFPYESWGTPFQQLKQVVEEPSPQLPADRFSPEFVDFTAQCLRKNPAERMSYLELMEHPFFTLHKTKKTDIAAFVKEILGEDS

[3] = molecular target: T2, MAP kinase-activated protein kinase 5 (Homo sapiens) (UniProt Q8IW41); test: Selectivity interaction (KinomeScan (DiscoverX)) EUB0000655a MAPKAPK5; details: at 10 µM
T2 sequence (whole entry): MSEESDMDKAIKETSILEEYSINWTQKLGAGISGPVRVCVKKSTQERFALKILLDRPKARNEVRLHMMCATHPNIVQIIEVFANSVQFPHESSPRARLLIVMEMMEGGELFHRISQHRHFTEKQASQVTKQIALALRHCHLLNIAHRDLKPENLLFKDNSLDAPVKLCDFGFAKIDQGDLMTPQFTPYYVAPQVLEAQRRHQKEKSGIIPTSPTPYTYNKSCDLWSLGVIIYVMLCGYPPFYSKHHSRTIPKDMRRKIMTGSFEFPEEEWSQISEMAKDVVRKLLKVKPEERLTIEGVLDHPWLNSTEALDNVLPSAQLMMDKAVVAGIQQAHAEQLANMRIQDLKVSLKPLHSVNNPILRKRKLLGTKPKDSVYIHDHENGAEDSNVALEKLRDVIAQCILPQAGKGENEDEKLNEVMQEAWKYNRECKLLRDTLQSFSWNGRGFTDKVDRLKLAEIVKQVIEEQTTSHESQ

[4] = molecular target: Ribosomal protein S6 kinase alpha-6 (Homo sapiens, UniProt Q9UK32); test: Selectivity interaction (KinomeScan (DiscoverX)) EUB0000655a RPS6KA6; details: at 10 µM
[5] = molecular target: Tyrosine-protein kinase HCK (Homo sapiens) (UniProt P08631); test: Selectivity interaction (KinomeScan (DiscoverX)) EUB0000607a HCK; details: at 10 µM
[6] = molecular target: Tyrosine-protein kinase ABL1 (Homo sapiens, UniProt P00519); test: Selectivity interaction (KinomeScan (DiscoverX)) EUB0000045b ABL1; details: at 10 µM
[7] = molecular target: Aurora kinase B (Homo sapiens, UniProt Q96GD4); details: at 10 µM
[8] = molecular target: Phosphatidylinositol 4-kinase beta (Homo sapiens, UniProt Q9UBF8); test: Selectivity interaction (ActivX KiNativ screen (kinase selectivity in THP-1 cell lysates)) EUB0000639a PI4KB; format: subcellular; details: lysate
[9] = molecular target: Serine/threonine-protein kinase PAK 2 (Homo sapiens) (UniProt Q13177); test: Selectivity interaction (KinomeScan (DiscoverX)) EUB0000229b PAK2; details: at 10 µM
[10] = molecular target: T3, Serine/threonine-protein kinase Sgk3 (Homo sapiens) (UniProt Q96BR1); test: Selectivity interaction (KinomeScan (DiscoverX)) EUB0000229b SGK3; details: at 10 µM
T3 sequence (whole entry): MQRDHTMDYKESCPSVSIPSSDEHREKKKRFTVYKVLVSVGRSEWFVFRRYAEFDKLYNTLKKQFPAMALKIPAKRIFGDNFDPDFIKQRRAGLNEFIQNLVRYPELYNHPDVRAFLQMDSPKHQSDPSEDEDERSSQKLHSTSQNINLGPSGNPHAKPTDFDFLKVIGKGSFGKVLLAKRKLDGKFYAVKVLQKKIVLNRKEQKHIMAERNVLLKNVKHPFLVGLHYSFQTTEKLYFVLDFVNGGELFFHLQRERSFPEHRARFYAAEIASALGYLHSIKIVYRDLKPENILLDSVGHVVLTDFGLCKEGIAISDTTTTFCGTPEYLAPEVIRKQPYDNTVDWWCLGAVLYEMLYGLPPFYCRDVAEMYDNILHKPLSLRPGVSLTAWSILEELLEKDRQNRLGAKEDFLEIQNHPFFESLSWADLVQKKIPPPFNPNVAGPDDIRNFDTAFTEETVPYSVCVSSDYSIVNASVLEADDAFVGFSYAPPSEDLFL

[11] = molecular target: Tyrosine-protein kinase Fer (Homo sapiens) (UniProt P16591); test: Selectivity interaction (KinomeScan (DiscoverX)) EUB0001049a FER; details: at 1 µM
[12] = molecular target: Phosphatidylinositol 4,5-bisphosphate 3-kinase catalytic subunit beta isoform (Homo sapiens) (UniProt P42338); test: Selectivity interaction (KinomeScan (DiscoverX)) EUB0001049a PIK3CB; details: at 1 µM
[13] = molecular target: T4, Dual specificity tyrosine-phosphorylation-regulated kinase 4 (Homo sapiens) (UniProt Q9NR20); test: Selectivity interaction (Kinase panel (Z-LYTE Assay)) EUB0001632a DYRK4; details: at 10 µM
T4 sequence (whole entry): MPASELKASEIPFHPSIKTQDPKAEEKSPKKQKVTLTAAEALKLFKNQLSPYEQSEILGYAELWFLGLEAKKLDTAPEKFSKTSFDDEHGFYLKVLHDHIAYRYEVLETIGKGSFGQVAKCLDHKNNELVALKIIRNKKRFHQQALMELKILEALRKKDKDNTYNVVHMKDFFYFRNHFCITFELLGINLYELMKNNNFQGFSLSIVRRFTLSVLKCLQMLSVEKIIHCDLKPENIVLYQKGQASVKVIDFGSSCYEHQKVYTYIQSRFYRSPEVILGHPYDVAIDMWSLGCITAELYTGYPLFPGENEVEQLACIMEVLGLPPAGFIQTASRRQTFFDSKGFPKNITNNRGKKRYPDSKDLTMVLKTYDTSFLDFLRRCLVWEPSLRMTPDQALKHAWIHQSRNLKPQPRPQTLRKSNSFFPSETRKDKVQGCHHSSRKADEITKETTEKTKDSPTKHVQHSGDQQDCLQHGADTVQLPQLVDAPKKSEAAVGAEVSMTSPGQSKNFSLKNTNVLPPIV

Phosphatidylinositol 4-kinase beta, sequence (Q9UBF8 2-816 limits assumed): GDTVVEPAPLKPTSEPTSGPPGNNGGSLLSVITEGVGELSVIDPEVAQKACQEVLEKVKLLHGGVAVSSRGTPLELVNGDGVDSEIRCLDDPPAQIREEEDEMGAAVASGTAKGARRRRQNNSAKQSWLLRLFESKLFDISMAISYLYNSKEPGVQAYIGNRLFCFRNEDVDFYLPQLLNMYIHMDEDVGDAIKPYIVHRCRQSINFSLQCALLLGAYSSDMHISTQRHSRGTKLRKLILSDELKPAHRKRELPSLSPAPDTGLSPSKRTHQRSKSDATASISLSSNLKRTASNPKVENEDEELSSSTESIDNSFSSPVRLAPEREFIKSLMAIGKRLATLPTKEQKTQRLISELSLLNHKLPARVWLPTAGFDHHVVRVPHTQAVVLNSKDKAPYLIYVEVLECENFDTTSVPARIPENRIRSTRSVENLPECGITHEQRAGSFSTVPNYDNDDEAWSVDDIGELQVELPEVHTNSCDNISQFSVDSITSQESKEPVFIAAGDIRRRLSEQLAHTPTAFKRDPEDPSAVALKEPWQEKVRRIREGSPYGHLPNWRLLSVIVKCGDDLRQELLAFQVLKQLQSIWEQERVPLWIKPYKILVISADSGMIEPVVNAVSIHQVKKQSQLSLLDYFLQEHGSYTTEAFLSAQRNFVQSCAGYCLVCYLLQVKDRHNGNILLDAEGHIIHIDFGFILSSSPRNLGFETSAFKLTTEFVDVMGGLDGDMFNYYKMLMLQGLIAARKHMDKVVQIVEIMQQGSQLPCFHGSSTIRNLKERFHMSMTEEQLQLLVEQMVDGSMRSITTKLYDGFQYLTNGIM
Ribosomal protein S6 kinase alpha-6, sequence (Q9UK32 whole entry): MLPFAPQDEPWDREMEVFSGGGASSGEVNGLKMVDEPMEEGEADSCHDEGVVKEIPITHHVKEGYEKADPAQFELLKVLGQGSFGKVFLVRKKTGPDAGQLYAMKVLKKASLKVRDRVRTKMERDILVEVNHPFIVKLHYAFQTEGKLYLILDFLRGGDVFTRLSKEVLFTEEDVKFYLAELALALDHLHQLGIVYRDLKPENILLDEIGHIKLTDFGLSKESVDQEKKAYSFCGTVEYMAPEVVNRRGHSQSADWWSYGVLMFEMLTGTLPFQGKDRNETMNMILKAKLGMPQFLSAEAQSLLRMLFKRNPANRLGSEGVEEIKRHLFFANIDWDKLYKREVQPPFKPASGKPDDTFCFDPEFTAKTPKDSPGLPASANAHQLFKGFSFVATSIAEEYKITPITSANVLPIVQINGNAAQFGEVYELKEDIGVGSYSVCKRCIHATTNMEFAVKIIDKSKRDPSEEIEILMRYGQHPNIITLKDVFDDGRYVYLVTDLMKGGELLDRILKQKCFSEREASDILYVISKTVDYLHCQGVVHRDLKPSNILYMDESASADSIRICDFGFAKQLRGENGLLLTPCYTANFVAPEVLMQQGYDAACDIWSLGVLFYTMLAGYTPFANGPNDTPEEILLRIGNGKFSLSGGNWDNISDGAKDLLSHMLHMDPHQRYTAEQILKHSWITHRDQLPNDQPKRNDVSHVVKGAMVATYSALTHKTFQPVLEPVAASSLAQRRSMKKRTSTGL
Serine/threonine-protein kinase PAK 2 (Homo sapiens), sequence (Q13177 whole entry): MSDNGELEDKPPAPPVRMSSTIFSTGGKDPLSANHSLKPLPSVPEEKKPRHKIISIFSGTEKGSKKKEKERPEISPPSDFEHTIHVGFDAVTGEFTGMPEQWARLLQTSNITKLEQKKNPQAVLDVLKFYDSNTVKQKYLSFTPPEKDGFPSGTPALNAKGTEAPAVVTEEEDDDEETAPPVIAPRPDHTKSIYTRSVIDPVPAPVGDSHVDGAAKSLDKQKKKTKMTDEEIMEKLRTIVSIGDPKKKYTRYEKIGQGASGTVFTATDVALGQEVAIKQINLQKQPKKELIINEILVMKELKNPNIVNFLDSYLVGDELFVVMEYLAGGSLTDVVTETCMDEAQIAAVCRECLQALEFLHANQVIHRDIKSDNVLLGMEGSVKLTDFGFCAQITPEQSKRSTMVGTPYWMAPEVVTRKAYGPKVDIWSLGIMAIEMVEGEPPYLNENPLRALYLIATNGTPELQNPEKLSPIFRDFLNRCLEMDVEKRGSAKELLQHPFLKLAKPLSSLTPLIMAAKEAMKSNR
Mitogen-activated protein kinase kinase kinase kinase 1 (Homo sapiens), sequence (Q92918 whole entry, looked up): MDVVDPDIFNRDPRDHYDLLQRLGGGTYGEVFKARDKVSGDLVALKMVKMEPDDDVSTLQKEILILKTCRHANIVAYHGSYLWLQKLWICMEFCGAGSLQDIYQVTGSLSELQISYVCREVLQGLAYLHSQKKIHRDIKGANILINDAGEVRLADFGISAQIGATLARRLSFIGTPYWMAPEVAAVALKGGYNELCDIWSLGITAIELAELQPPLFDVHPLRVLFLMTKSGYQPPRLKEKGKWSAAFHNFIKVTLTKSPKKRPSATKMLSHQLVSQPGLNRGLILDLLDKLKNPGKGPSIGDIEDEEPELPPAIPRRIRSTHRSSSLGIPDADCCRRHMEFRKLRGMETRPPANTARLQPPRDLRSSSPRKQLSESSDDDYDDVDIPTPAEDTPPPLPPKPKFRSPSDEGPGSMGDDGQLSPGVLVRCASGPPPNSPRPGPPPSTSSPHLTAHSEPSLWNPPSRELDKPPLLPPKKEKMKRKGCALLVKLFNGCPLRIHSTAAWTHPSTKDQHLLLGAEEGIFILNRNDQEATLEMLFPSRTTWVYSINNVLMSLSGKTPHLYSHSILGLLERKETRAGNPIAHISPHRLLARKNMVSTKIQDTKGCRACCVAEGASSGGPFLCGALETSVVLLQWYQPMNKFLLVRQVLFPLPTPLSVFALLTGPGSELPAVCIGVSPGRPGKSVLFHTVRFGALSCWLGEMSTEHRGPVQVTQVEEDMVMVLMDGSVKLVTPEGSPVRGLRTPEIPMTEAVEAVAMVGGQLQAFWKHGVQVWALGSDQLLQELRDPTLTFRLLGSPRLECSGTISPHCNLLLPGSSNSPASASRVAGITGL
Aurora kinase B, sequence (Q96GD4 whole entry): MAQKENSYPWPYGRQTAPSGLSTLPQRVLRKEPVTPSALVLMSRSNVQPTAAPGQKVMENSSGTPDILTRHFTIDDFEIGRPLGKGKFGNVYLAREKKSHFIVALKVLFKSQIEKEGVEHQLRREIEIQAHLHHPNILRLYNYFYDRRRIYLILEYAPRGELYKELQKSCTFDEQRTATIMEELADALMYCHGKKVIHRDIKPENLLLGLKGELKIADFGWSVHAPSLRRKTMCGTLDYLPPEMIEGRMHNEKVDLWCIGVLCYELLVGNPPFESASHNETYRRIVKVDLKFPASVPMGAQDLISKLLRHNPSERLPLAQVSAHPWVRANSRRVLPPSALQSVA
Tyrosine-protein kinase HCK (Homo sapiens), sequence (P08631 2-526 limits assumed): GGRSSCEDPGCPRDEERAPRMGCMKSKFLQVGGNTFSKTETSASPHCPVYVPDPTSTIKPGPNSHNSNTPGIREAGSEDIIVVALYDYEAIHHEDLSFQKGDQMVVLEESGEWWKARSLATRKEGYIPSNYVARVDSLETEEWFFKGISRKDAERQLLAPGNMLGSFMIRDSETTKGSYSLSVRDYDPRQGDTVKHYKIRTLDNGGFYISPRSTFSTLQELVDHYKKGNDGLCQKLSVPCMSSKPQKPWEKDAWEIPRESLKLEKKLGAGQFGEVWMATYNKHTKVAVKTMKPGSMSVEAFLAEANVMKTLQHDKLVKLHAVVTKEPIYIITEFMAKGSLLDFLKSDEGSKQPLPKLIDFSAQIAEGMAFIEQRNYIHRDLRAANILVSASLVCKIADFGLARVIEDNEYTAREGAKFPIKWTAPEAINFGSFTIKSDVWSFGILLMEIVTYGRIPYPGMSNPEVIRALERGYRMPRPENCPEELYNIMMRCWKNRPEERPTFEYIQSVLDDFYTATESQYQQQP
Tyrosine-protein kinase Fer (Homo sapiens), sequence (P16591 whole entry, looked up, canonical isoform): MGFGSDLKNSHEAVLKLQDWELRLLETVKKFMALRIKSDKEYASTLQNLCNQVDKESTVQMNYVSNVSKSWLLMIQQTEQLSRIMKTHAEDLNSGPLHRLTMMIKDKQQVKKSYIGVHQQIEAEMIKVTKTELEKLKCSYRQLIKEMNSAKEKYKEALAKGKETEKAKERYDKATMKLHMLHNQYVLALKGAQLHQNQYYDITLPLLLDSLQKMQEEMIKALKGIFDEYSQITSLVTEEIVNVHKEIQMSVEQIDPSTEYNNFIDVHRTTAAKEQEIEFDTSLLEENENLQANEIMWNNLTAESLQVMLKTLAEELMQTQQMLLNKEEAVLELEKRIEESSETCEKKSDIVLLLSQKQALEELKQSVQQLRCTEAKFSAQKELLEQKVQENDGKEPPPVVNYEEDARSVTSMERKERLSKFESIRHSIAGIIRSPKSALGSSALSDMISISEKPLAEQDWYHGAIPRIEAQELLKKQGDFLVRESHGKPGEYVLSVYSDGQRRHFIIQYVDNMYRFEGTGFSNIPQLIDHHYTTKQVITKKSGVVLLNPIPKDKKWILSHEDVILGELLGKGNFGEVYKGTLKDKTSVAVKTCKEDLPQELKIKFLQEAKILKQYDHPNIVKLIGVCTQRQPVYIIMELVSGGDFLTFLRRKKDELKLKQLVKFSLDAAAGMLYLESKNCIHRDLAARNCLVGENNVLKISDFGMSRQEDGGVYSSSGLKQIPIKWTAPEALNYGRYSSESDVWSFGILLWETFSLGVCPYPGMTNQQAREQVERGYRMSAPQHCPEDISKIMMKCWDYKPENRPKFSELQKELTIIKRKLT

CCN(CC)CCCCNc1ncc2cc(-c3cc(OC)cc(OC)c3)c(NC(=O)NC(C)(C)C)nc2n1
% of control [1]: 100%

CN(C)C/C=C/C(=O)Nc1ccc(C(=O)N2CCCC(Nc3ncc(Cl)c(-c4c[nH]c5ccccc45)n3)C2)cc1 (configuration not stated)
% of control [2]: 51%

CN(C)CCOc1ccc(-c2nc(-c3ccncc3)c(-c3ccc4c(c3)CC/C4=N\O)[nH]2)cc1
% of control [3]: 100%
% of control [4]: 88%

CNC(=O)Nc1ccc(-c2nc(N3CC4CCC(C3)O4)c3cnn(C4CCC5(CC4)OCCO5)c3n2)cc1
% of control [5]: 100%

C=CC(=O)Nc1cc(-n2c(=O)ccc3cnc4ccc(-c5ccc(NS(C)(=O)=O)cc5)cc4c32)ccc1C
% of control [6]: 79%

Cc1cc([C@@H](C)Nc2ccccc2C(=O)O)c2nc(N3CCOCC3)cc(=O)n2c1 [AZD-6482]
% of control [7]: 96%

CC[C@@H]1[C@H](F)C(=O)N[C@@H]1COc1nccc2cc(C(N)=O)c(OC)cc12 [ZIMLOVISERTIB]
% of inhibition ([8]; at 0.01 µM): -20.4%
% of inhibition ([8]; at 0.04 µM): 12.3%
% of inhibition ([8]; at 0.2 µM): 15.1%
% of inhibition ([8]; at 1 µM): 7.7%
% of inhibition ([8]; at 5 µM): -1.3%

COc1cc(N(C)c2ccnc3ccc(C(F)(F)F)cc23)cc(OC)c1OC
% binding [9]: 77%
% binding [10]: 79%

COc1cc(Nc2nc(C)cc(-c3cnn4nc(OC)ccc34)n2)cc(C(F)(F)F)c1
% of control [11]: 93%
% of control [12]: 55%

Cn1cc(-n2cnc3c(NCc4nc5cc(Cl)c(Cl)cc5[nH]4)nc(N4CCOCC4)nc32)cn1
% of control [13]: 0.0605%
